Earlier results as cited in patent US10953063B2, “Method of treating select cancers using timed administration of plant extract from species Physalis pubescens and Hedyotis diffusa willd” (priority 2018, dated 2021).

System: human leukemia cells
Details: research findings

Q: With `Cc1cc2c(cc1O)C(=O)c1ccccc1C2=O` [2-Hydroxy-3-Methylanthraguinone] as the compound, how does the “apoptosis in human leukemia cells” value read?
A: induces apoptosis
